From patent US11787785B2 (NOVARTIS AG, priority 2021, dated 2023)

Molecular target: T1, WIZ protein (HiBit-WIZ fusion protein) (Homo sapiens, UniProt O95785+Q96SW2)
T1 construct: expressed in transfected cells
Test: Quantification of WIZ protein levels in HiBit tag fusion protein assay (WIZ HiBit assay in 293T cells)
Type: cell-based
Details: for Dmax at 25 µM / remaining activity at 25 µM: HEK-293T, 293T cells; for Dmax at 25 µM: 100 − Amax, read-out: % degradation of WIZ (100 − Amax); for remaining activity at 25 µM: DMSO-normalized, curve-fitted percentage of WIZ-HiBit remaining at 25 uM, read-out: WIZ Amax; for DC50: WIZ HiBit assay in 293T cells, 10-point, 5-fold dose response, highest concentration 25 μM, about 18 hours, read-out: WIZ AC50
In short: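 HiBit-tagged WIZ (N-terminal tag, HSVTK promoter) stably expressed single-copy in 293T cells; 10-point 1:5 compound series, top 25 μM, ~18 h at 37 °C. Lytic HiBit/LgBit luminescence read; Amax = curve-fitted % WIZ-HiBit remaining at 25 μM, DMSO normalized to 100%.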

T1 sequence (O95785 whole entry, the tested form may be a part): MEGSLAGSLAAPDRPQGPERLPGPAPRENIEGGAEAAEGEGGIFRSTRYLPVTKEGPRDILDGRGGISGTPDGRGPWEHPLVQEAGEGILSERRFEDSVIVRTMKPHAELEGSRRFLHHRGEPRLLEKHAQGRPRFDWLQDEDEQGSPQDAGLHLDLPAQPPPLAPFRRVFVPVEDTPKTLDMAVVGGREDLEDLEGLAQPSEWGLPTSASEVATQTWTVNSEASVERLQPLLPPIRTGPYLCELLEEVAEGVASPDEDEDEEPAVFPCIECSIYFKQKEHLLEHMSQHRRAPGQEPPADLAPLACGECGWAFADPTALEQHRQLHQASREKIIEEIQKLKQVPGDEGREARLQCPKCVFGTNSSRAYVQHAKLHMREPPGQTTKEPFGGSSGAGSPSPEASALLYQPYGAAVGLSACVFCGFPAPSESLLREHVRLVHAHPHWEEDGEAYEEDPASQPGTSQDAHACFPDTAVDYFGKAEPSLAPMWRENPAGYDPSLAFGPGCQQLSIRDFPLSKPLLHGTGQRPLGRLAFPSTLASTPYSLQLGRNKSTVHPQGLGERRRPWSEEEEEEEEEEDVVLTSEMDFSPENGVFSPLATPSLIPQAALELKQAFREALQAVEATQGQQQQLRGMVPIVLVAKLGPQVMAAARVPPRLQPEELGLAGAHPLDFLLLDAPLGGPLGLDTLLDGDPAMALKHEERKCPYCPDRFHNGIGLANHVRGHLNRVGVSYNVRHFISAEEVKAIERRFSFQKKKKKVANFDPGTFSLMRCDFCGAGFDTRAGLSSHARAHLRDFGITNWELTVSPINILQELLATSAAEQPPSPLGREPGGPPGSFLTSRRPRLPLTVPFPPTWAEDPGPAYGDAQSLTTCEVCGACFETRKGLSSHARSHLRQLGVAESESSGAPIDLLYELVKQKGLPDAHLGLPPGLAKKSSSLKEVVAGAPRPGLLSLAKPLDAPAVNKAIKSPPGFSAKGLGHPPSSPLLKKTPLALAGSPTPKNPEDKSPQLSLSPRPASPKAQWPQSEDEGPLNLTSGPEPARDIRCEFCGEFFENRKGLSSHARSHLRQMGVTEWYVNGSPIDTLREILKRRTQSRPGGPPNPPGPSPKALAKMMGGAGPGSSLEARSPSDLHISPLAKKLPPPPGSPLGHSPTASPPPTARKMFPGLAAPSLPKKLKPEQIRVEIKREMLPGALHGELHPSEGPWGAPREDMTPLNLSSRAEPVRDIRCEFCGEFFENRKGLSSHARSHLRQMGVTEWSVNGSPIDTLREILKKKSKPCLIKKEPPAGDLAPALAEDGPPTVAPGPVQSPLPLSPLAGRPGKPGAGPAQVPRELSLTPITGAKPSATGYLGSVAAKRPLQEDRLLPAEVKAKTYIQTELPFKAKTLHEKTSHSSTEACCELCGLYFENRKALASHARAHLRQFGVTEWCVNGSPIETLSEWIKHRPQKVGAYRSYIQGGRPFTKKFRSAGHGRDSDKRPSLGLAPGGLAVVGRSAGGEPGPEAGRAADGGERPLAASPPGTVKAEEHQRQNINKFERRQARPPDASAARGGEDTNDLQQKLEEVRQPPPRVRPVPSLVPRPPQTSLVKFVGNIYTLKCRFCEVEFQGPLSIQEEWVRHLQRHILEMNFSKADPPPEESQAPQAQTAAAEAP
T1 sequence (Q96SW2 whole entry, the tested form may be a part): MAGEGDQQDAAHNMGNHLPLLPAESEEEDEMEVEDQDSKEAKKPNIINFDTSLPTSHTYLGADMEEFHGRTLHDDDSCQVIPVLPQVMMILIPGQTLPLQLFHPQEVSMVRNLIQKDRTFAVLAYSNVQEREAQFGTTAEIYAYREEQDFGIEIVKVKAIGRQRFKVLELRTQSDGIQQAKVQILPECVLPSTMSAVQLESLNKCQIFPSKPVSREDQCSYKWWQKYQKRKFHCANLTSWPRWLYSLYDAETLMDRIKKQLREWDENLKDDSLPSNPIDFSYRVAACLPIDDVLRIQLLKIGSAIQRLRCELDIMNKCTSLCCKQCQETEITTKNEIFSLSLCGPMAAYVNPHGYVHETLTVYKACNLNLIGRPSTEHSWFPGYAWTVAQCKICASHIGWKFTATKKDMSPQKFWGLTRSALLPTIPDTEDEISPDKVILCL
T1 sequence (Q16531 whole entry partner, the tested form may be a part): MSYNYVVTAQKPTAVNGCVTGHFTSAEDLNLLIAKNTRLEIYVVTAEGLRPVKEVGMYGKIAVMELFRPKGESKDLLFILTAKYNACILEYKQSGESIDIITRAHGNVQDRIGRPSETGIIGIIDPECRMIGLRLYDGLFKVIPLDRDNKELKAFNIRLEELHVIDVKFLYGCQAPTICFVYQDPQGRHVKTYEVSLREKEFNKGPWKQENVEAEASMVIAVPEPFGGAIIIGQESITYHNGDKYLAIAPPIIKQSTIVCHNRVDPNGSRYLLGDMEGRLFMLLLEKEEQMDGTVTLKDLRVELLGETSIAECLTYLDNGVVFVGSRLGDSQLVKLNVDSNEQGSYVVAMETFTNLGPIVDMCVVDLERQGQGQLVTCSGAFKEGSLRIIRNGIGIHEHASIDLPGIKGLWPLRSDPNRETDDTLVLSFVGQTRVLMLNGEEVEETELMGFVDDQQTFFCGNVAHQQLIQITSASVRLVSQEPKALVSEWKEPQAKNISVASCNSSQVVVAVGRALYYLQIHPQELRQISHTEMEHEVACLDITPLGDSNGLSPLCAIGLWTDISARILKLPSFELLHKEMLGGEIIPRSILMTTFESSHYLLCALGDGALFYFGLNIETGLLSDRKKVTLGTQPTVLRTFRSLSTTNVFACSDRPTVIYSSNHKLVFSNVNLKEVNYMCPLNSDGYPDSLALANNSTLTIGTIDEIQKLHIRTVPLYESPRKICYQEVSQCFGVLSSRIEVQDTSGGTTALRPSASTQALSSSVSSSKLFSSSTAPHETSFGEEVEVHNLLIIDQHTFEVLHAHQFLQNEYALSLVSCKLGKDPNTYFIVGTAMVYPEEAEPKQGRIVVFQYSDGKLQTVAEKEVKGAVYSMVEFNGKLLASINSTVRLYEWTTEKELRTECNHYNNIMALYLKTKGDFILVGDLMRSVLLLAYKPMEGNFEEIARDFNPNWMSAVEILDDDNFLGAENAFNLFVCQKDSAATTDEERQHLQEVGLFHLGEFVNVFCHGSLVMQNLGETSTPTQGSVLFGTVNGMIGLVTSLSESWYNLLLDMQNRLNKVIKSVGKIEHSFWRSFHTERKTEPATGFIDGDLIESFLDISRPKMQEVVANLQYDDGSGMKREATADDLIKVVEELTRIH

Row | Structure (SMILES) | Dmax at 25 µM | remaining activity at 25 µM | DC50
1 | C[C@H]1CN(CC2CCCCC2)CCN1Cc1ccn2ncc(N3CCC(=O)NC3=O)c2c1 [Example 221] | 54% | 46% | 318 nM
2 | CC(C)CN1CCN(Cc2ccn3ncc(N4CCC(=O)NC4=O)c3c2)[C@@H](C)C1 [Example 222] | 64% | 36% | 457 nM
3 | C[C@H]1CN(CC2CCOCC2)CCN1Cc1ccn2ncc(N3CCC(=O)NC3=O)c2c1 [Example 223] | 51% | 49% | 877 nM
4 | C[C@H]1CN(CC2CCC2)CCN1Cc1ccn2ncc(N3CCC(=O)NC3=O)c2c1 [Example 224] | 45% | 55% | 854 nM
5 | C[C@H]1CN(CC2CCCO2)CCN1Cc1ccn2ncc(N3CCC(=O)NC3=O)c2c1 (stereo partly drawn) [Example 225] | 32% | 68% | 1050 nM
6 | C[C@H]1CN(CC2CC(F)(F)C2)CCN1Cc1ccn2ncc(N3CCC(=O)NC3=O)c2c1 [Example 226, (S)-1-(5-((4-((3,3-difluorocyclobutyl)methyl)-2-methylpiperazin-1-yl)methyl)pyrazolo[1,5-a]pyridin-3-yl)dihydropyrimidine-2,4(1H,3H)-dione] | 45% | 55% | 1230 nM
7 | CC[C@H]1CN(Cc2ccn3ncc(N4CCC(=O)NC4=O)c3c2)CCN1CC1CCOCC1 [Example 227, (S)-1-(5-((3-ethyl-4-((tetrahydro-2H-pyran-4-yl)methyl)piperazin-1-yl)methyl)pyrazolo[1,5-a]pyridin-3-yl)dihydropyrimidine-2,4(1H,3H)-dione] | 60% | 40% | 956 nM
8 | CC[C@H]1CN(Cc2ccn3ncc(N4CCC(=O)NC4=O)c3c2)CCN1CC(C)C [Example 228, (S)-1-(5-((3-ethyl-4-isobutylpiperazin-1-yl)methyl)pyrazolo[1,5-a]pyridin-3-yl)dihydropyrimidine-2,4(1H,3H)-dione] | 55% | 45% | 704 nM
9 | CC(C)CN1CCN(Cc2ccn3ncc(N4CCC(=O)NC4=O)c3c2)C[C@@H]1C(C)C [Example 229, (S)-1-(5-((4-isobutyl-3-isopropylpiperazin-1-yl)methyl)pyrazolo[1,5-a]pyridin-3-yl)dihydropyrimidine-2,4(1H,3H)-dione] | 0% | 100% | > 25000 nM
10 | CC(C)[C@H]1CN(Cc2ccn3ncc(N4CCC(=O)NC4=O)c3c2)CCN1CC1CCOCC1 [Example 230, (S)-1-(5-((3-isopropyl-4-((tetrahydro-2H-pyran-4-yl)methyl)piperazin-1-yl)methyl)pyrazolo[1,5-a]pyridin-3-yl)dihydropyrimidine-2,4(1H,3H)-dione] | 0% | 100% | > 25000 nM
11 | CC1(C)CN(Cc2ccn3ncc(N4CCC(=O)NC4=O)c3c2)CCN1CC1CCCCC1 [Example 231, 1-(5-((4-(cyclohexylmethyl)-3,3-dimethylpiperazin-1-yl)methyl)pyrazolo[1,5-a]pyridin-3-yl)dihydropyrimidine-2,4(1H,3H)-dione] | 53% | 47% | 150 nM
12 | CC1(C)CN(Cc2ccn3ncc(N4CCC(=O)NC4=O)c3c2)CCN1CC1CCOCC1 [Example 232, 1-(5-((3,3-dimethyl-4-((tetrahydro-2H-pyran-4-yl)methyl)piperazin-1-yl)methyl)pyrazolo[1,5-a]pyridin-3-yl)dihydropyrimidine-2,4(1H,3H)-dione] | 48% | 52% | 206 nM
13 | CC(C)CN1CCN(Cc2ccn3ncc(N4CCC(=O)NC4=O)c3c2)CC1(C)C [Example 233, 1-(5-((4-isobutyl-3,3-dimethylpiperazin-1-yl)methyl)pyrazolo[1,5-a]pyridin-3-yl)dihydropyrimidine-2,4(1H,3H)-dione] | 40% | 60% | 589 nM
14 | O=C1CCN(c2cnn3ccc(CN4C[C@H]5C[C@@H]4CN5CC4CCCCC4)cc23)C(=O)N1 [Example 234, 1-(5-(((1R,4R)-5-(cyclohexylmethyl)-2,5-diazabicyclo[2.2.1]heptan-2-yl)methyl)pyrazolo[1,5-a]pyridin-3-yl)dihydropyrimidine-2,4(1H,3H)-dione] | 42% | 58% | 942 nM
15 | O=C1CCN(c2cnn3ccc(CN4C[C@H]5C[C@@H]4CN5Cc4cccnc4)cc23)C(=O)N1 [Example 235, 1-(5-(((1R,4R)-5-(pyridin-3-ylmethyl)-2,5-diazabicyclo[2.2.1]heptan-2-yl)methyl)pyrazolo[1,5-a]pyridin-3-yl)dihydropyrimidine-2,4(1H,3H)-dione] | 35% | 65% | 3280 nM
16 | O=C1CCN(c2cnn3ccc(CN4C[C@@H]5C[C@H]4CN5CC4CCCCC4)cc23)C(=O)N1 [Example 236, 1-(5-(((1S,4S)-5-(cyclohexylmethyl)-2,5-diazabicyclo[2.2.1]heptan-2-yl)methyl)pyrazolo[1,5-a]pyridin-3-yl)dihydropyrimidine-2,4(1H,3H)-dione] | 5% | 95% | 3200 nM
17 | O=C1CCN(c2cnn3ccc(CN4C[C@@H]5C[C@H]4CN5Cc4cccnc4)cc23)C(=O)N1 [Example 237, 1-(5-(((1S,4S)-5-(pyridin-3-ylmethyl)-2,5-diazabicyclo[2.2.1]heptan-2-yl)methyl)pyrazolo[1,5-a]pyridin-3-yl)dihydropyrimidine-2,4(1H,3H)-dione] | 6% | 94% | > 25000 nM
18 | CC(C)S(=O)(=O)N1C[C@@H]2C[C@H]1CN2Cc1ccn2ncc(N3CCC(=O)NC3=O)c2c1 [Example 238, 1-(5-(((1S,4S)-5-(isopropylsulfonyl)-2,5-diazabicyclo[2.2.1]heptan-2-yl)methyl)pyrazolo[1,5-a]pyridin-3-yl)dihydropyrimidine-2,4(1H,3H)-dione] | 19% | 81% | 754 nM
19 | CC(C)S(=O)(=O)N1C[C@H]2C[C@@H]1CN2Cc1ccn2ncc(N3CCC(=O)NC3=O)c2c1 [Example 239, 1-(5-(((1R,4R)-5-(isopropylsulfonyl)-2,5-diazabicyclo[2.2.1]heptan-2-yl)methyl)pyrazolo[1,5-a]pyridin-3-yl)dihydropyrimidine-2,4(1H,3H)-dione] | 0% | 100% | > 25000 nM
20 | CC(C)C(C)N1CCN(Cc2ccn3ncc(N4CCC(=O)NC4=O)c3c2)CC1 (stereo not drawn) [Example 240, 1-(5-((4-(3-methylbutan-2-yl)piperazin-1-yl)methyl)pyrazolo[1,5-a]pyridin-3-yl)dihydropyrimidine-2,4(1H,3H)-dione] | 80% | 20% | 25 nM
21 | CC(C)(CN1CCN(Cc2ccn3ncc(N4CCC(=O)NC4=O)c3c2)CC1)C(F)(F)F [Example 241, 1-(5-((4-(3,3,3-trifluoro-2,2-dimethylpropyl)piperazin-1-yl)methyl)pyrazolo[1,5-a]pyridin-3-yl)dihydropyrimidine-2,4(1H,3H)-dione] | 44% | 56% | 351 nM
22 | O=C1CCN(c2cnn3ccc(CN4CCN(CC5CCCCC5)C(=O)C4)cc23)C(=O)N1 [Example 242, 1-(5-((4-(cyclohexylmethyl)-3-oxopiperazin-1-yl)methyl)pyrazolo[1,5-a]pyridin-3-yl)dihydropyrimidine-2,4(1H,3H)-dione] | 7% | 93% | 1600 nM
23 | O=C1CCN(c2cnn3ccc(CN4CCN(CCC5CCCCC5)C(=O)C4)cc23)C(=O)N1 [Example 243, 1-(5-((4-(2-cyclohexylethyl)-3-oxopiperazin-1-yl)methyl)pyrazolo[1,5-a]pyridin-3-yl)dihydropyrimidine-2,4(1H,3H)-dione] | 13% | 87% | 3060 nM
24 | COC[C@H]1CN(Cc2ccn3ncc(N4CCC(=O)NC4=O)c3c2)CCN1CC1CCCCC1 [Example 244, (R)-1-(5-((4-(cyclohexylmethyl)-3-(methoxymethyl)piperazin-1-yl)methyl)pyrazolo[1,5-a]pyridin-3-yl)dihydropyrimidine-2,4(1H,3H)-dione] | 53% | 47% | 1180 nM
25 | COC[C@H]1CN(Cc2ccn3ncc(N4CCC(=O)NC4=O)c3c2)CCN1CC(C)C [Example 245, (R)-1-(5-((4-isobutyl-3-(methoxymethyl)piperazin-1-yl)methyl)pyrazolo[1,5-a]pyridin-3-yl)dihydropyrimidine-2,4(1H,3H)-dione] | 52% | 48% | 351 nM
26 | O=C1CCN(c2cnn3ccc(CN4CCN(CC5CCCCC5)[C@@H](C(F)F)C4)cc23)C(=O)N1 [Example 246, (R)-1-(5-((4-(cyclohexylmethyl)-3-(difluoromethyl)piperazin-1-yl)methyl)pyrazolo[1,5-a]pyridin-3-yl)dihydropyrimidine-2,4(1H,3H)-dione] | 0% | 100% | > 25000 nM
27 | CC(C)CN1CCN(Cc2ccn3ncc(N4CCC(=O)NC4=O)c3c2)C[C@@H]1C(F)F [Example 247, (R)-1-(5-((3-(difluoromethyl)-4-isobutylpiperazin-1-yl)methyl)pyrazolo[1,5-a]pyridin-3-yl)dihydropyrimidine-2,4(1H,3H)-dione] | 15% | 85% | 1370 nM
